SMILES strings stand for the structures. Values joined by “and” are separate entries in the source; they are usually repeats but may differ in a detail not shown here. Equal entries are not always repeated.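 Following 48 hours of exposure in 96-well plates, responses at five concentrations were used to interpolate endpoints linearly. Here, GI50 denotes the concentration required for 50% inhibition of growth. TGI denotes the concentration required for complete inhibition of growth.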

Test systems include 786-0 renal; BT-549 breast; DU-145 prostate; EKVX NSCLC; HCT-116 colon; HL-60(TB) leukemia; HOP-62 NSCLC; PC-3 prostate; SF-539 CNS; T-47D breast.
Common to all, as to test: NCI tumour cell line growth inhibition, 48 h

Turning to `BrP(NC1CCCCCC1)(c1ccccc1)(c1ccccc1)c1ccccc1`, the TGI was 32.3 µM with 786-0 renal; 9.57 µM in the test with BT-549 breast; 29.9 µM in the test with DU-145 prostate; 35.4 µM in the test on EKVX NSCLC; over 100 µM in the test on HCT-116 colon; 13.8 µM in the test on HL-60(TB) leukemia. For the same compound, the TGI was 35.5 µM in the test with HOP-62 NSCLC, 5.53 µM in the test on PC-3 prostate, 34.4 µM in the test with SF-539 CNS and 7.76 µM in the test on T-47D breast.
Consider `O=C(Cc1ccccc1)Nc1nnc(CCSCCc2nnc(NC(=O)Cc3ccccc3)s2)s1`, for which the GI50 in the test on 786-0 renal was 6.11 µM; with BT-549 breast, 5.18 µM; in the test with DU-145 prostate, 23.8 µM; with EKVX NSCLC, over 100 µM; with HCT-116 colon, 59.8 µM; in the test on HL-60(TB) leukemia, 4.26 µM. For the same compound, the GI50 is 3.86 µM with HOP-62 NSCLC, 4.55 µM with PC-3 prostate, 22.8 µM in the test with SF-539 CNS and 8.13 µM in the test with T-47D breast. The TGI was 54.6 µM in the test on 786-0 renal; 74.8 µM with BT-549 breast; over 100 µM in the test on DU-145 prostate; over 100 µM in the test on EKVX NSCLC; over 100 µM with HCT-116 colon; 65.4 µM with HL-60(TB) leukemia. In addition, the TGI is 19.6 µM with HOP-62 NSCLC, over 100 µM in the test with PC-3 prostate, over 100 µM with SF-539 CNS and over 100 µM in the test on T-47D breast.
Turning to `CC[C@](O)(C(=O)O)c1cc2n(c(=O)c1CO)Cc1cc3ccccc3nc1-2`, the TGI in the test with 786-0 renal was 0.0525 µM; in the test on BT-549 breast, 11.5 µM and 18.5 µM; in the test with DU-145 prostate, 0.559 µM and 0.417 µM; with HCT-116 colon, 0.622 µM; in the test with HL-60(TB) leukemia it was 0.347 µM and 2.5 µM; with PC-3 prostate, 5.17 µM. For the same compound, in the test with T-47D breast, the TGI came to 0.0755 µM. The GI50 was 0.107 µM in the test on BT-549 breast; under 0.0025 µM with DU-145 prostate; 0.283 µM and 0.63 µM with EKVX NSCLC; under 0.0025 µM in the test on HL-60(TB) leukemia; 0.025 µM in the test on HOP-62 NSCLC; 0.113 µM in the test on PC-3 prostate. For the same compound, the GI50 in the test on SF-539 CNS and with T-47D breast was under 0.0025 µM throughout.
As to `c1ccc(Cn2cc3c(c2)-c2oncc2CC3)cc1`, the GI50 in the test with 786-0 renal was 1.86 µM; with BT-549 breast, 4.31 µM; in the test with DU-145 prostate, 0.977 µM; in the test on EKVX NSCLC, 2.74 µM; in the test with HCT-116 colon, 0.408 µM; in the test on HL-60(TB) leukemia, 0.274 µM. For the same compound, the GI50 with HOP-62 NSCLC was 1.28 µM; in the test on PC-3 prostate, 1.99 µM; in the test with SF-539 CNS, 0.461 µM; in the test on T-47D breast, 2.25 µM. Also, the TGI in the test with 786-0 renal is over 30.8 µM; in the test on BT-549 breast, 98.2 µM; with DU-145 prostate it was 12.8 µM; with EKVX NSCLC, over 100 µM; in the test on HCT-116 colon it was over 100 µM; in the test on HL-60(TB) leukemia, 0.939 µM. In addition, the TGI was over 59.4 µM in the test on HOP-62 NSCLC, over 100 µM in the test on PC-3 prostate, 2.9 µM in the test with SF-539 CNS and over 100 µM in the test on T-47D breast.
Regarding `Cc1cc[c-]cc1.Fc1c[c-]c(-c2ccccn2)c(F)c1.N#CCC[PH+](CCC#N)c1ccccc1.[Pt+2]`, the GI50 in the test with 786-0 renal was 3.57 µM; with BT-549 breast, 3.22 µM; in the test with DU-145 prostate it was 2.46 µM; with EKVX NSCLC it was 3.09 µM; in the test on HCT-116 colon, 2.25 µM; in the test with HL-60(TB) leukemia it was 2.37 µM. The GI50 in the test with HOP-62 NSCLC was 4.93 µM; in the test on PC-3 prostate, 3.01 µM; with SF-539 CNS it was 2.92 µM; with T-47D breast it was 2.79 µM. The TGI turned out to be 18.8 µM in the test with 786-0 renal; 31.6 µM in the test on BT-549 breast; 6.22 µM in the test with DU-145 prostate; 22.3 µM with EKVX NSCLC; 5.91 µM with HCT-116 colon; 18.1 µM in the test on HL-60(TB) leukemia. The TGI worked out at 31.7 µM with HOP-62 NSCLC, 20.7 µM with PC-3 prostate, 10.3 µM in the test on SF-539 CNS and 41.1 µM in the test with T-47D breast.
`CCN(CC)c1ccc(/C=C/C(=O)c2cccc(NS(C)(=O)=O)c2)cc1`: the GI50 was 4.98 µM in the test on 786-0 renal; 4.67 µM in the test with BT-549 breast; 7.2 µM in the test with DU-145 prostate; 5.46 µM in the test with EKVX NSCLC; 3.99 µM in the test on HCT-116 colon; 20 µM in the test with HL-60(TB) leukemia. For the same compound, the GI50 is 27.6 µM in the test on HOP-62 NSCLC, 6.35 µM in the test with PC-3 prostate, 4.94 µM with SF-539 CNS and 4.29 µM in the test with T-47D breast. For the same compound, the TGI in the test with 786-0 renal, in the test on BT-549 breast, in the test on DU-145 prostate, in the test with EKVX NSCLC, in the test with HCT-116 colon and with HL-60(TB) leukemia was over 100 µM throughout. Also, the TGI in the test on HOP-62 NSCLC, in the test with PC-3 prostate, in the test with SF-539 CNS and in the test with T-47D breast was over 100 µM throughout.
On to `COc1cc(C(=O)/C=C/c2c(-c3ccc(F)cc3)nc3sccn23)cc(OC)c1OC`, for which the GI50 is 2.54 µM in the test with 786-0 renal; 0.342 µM in the test on BT-549 breast; 2.52 µM with DU-145 prostate; 3.03 µM in the test on EKVX NSCLC; 2.31 µM with HCT-116 colon; 1.61 µM in the test with HL-60(TB) leukemia. The GI50 in the test with HOP-62 NSCLC is 1.96 µM; with PC-3 prostate it was 3.57 µM; with SF-539 CNS, 1.59 µM; in the test with T-47D breast, 2.3 µM. The TGI in the test with 786-0 renal is 6.49 µM; with BT-549 breast, 12.5 µM; with DU-145 prostate it was 6.64 µM; in the test with EKVX NSCLC it was over 100 µM; in the test on HCT-116 colon it was 8.75 µM; in the test on HL-60(TB) leukemia, 4.19 µM. The TGI was 5.73 µM in the test on HOP-62 NSCLC, over 46.2 µM in the test with PC-3 prostate, 3.62 µM in the test on SF-539 CNS and 14.3 µM with T-47D breast.
As to `Cn1cc(-c2csc(-c3cn(CCN4CCOCC4)c4ccc(F)cc34)n2)c2cccnc21`, the GI50 in the test with 786-0 renal was 2.91 µM; in the test with BT-549 breast, 2.18 µM; with DU-145 prostate it was 3.12 µM; in the test with EKVX NSCLC, 2.52 µM; in the test on HCT-116 colon it was 3 µM; in the test with HL-60(TB) leukemia, 2.52 µM. The GI50 was 2.42 µM in the test with HOP-62 NSCLC, 2.14 µM with PC-3 prostate, 3.16 µM in the test with SF-539 CNS and 1.52 µM in the test on T-47D breast. Besides, the TGI with 786-0 renal is 11.4 µM; with BT-549 breast it was 6.21 µM; in the test on DU-145 prostate it was over 100 µM; in the test with EKVX NSCLC, 26.6 µM; in the test with HCT-116 colon, 10.2 µM; with HL-60(TB) leukemia, 6.87 µM. Besides, the TGI is 7.59 µM in the test on HOP-62 NSCLC, 6.64 µM in the test on PC-3 prostate, 16.2 µM in the test with SF-539 CNS and 4.73 µM in the test on T-47D breast.

These data come from PubChem BioAssay (NCI).
